Data taken from patent publication US9566254B2, “Inhibitors and methods of inhibiting bacterial and viral pathogens” (priority 2010, dated 2017).
Where a name gives a salt, the structure may show the parent alone. Read-outs that look alike come from different tables or passages of the source.

Key:
Assay in all cases: microbe, parasite or virus in culture
Type in all cases: cell-based
Chlamydophila caviae = conditions: Chlamydia caviae, Vero, read-out: Avg Activity (C. Caviae)
Tacaribe virus = conditions: Mammarenavirus tacaribeense, Vero
La Crosse virus (LACV) = system: La Crosse virus (LACV)
vaccinia virus = conditions: read-out: Avg Activity (VV)
dengue virus = system: dengue virus
influenza virus = conditions: unidentified influenza virus
Ebola virus = conditions: Zaire ebolavirus
Andes virus = system: Andes virus
[1] = system: encephalomyocarditis virus; conditions: Cardiovirus A, read-out: Misc Virus Activity: Encephalomyocarditis
[2] = system: lymphocytic choriomeningitis virus; conditions: for EC50: Mammarenavirus choriomeningitidis, read-out: Misc Virus Activity: Lymphocytic Choriomeningitis
[3] = system: Rift Valley fever virus (RVFV) vaccine strain MP-12; conditions: Vero
[4] = system: respiratory syncytial virus; conditions: human respiratory syncytial virus, read-out: Misc Virus Activity: Respiratory Syncytial
Sindbis virus = conditions: read-out: Misc Virus Activity: Sindbis
HIV-1 = conditions: Human immunodeficiency virus 1, read-out: Misc Virus Activity: HIV-1
[5] = read-out: Misc Activity: Tacaribe
[6] = La Crosse virus, Vero, read-out: Avg Activity (LACV)
[7] = read-out: Misc Activity: Dengue
[8] = A549, read-out: Misc Activity: Influenza
[9] = read-out: Misc Virus Activity: Tacaribe
[10] = read-out: Misc Virus Activity: Rift Valley Fever
[11] = read-out: Misc Virus Activity: Dengue
[12] = A549, read-out: Misc Virus Activity: Influenza
[13] = read-out: Misc Virus Activity: Ebola

| Structure (SMILES) | EC50 (Chlamydophila caviae) [nM] | EC50 (Tacaribe virus; [5]) [nM] | EC50 (La Crosse virus (LACV); [6]) [nM] | EC50 (vaccinia virus; Orthopoxvirus vaccinia) [nM] | EC50 (dengue virus; [7]) [nM] | EC50 (influenza virus; [8]) [nM] | EC50 (Tacaribe virus; [9]) [nM] | EC50 (dengue virus; [11]) [nM] | EC50 (influenza virus; [12]) [nM] | other results |
| --- | --- | --- | --- | --- | --- | --- | --- | --- | --- | --- |
| CC(C)(C)c1ccc(C(=O)NC(=S)Nc2ccc(NC(=O)c3ccccc3Cl)c(N)c2)cc1 [Compound 6, N-[2-amino-4-[(4-tert-butylbenzoyl)-carbamothioylamino]-phenyl]-2-chloro-benzamide hydrochloride] | < 1000 | < 1000 | < 1000 | < 1000 | < 1000 | < 1000 | – | – | – | EC50 (Ebola virus; read-out: Misc Activity: Ebola): 1000 to 10000 nM |
| Cc1ccc(Cl)c(NC(=S)NC(=O)c2ccc(C(C)(C)C)cc2)c1 [Compound 11, 4-tert-butyl-N-[(2-chloro-5-methyl-phenyl)-carbamothioyl]benzamide] | < 1000 | – | 1000 to 10000 | < 1000 | < 1000 | 1000 to 10000 | – | – | – | – |
| CC(C)(C)c1ccc(C(=O)NC(=S)Nc2cccc(N)c2)cc1 [Compound 17, N-[(3-aminophenyl)-carbamothioyl]-4-tert-butyl-benzamide] | < 1000 | < 1000 | 1000 to 10000 | 1000 to 10000 | < 1000 | < 1000 | – | – | – | – |
| COc1cc(NC(=S)NC(=O)c2ccc(C(C)(C)C)cc2)ccc1N [Compound 18, N-[(4-amino-3-methoxy-phenyl)carbamothioyl]-4-tert-butyl-benzamide hydrochloride] | – | < 1000 | – | – | < 1000 | – | – | – | – | EC50 (La Crosse virus (LACV); read-out: Avg Activity (LACV), hydrochloride): 1000 to 10000 nM; EC50 (vaccinia virus; hydrochloride): 1000 to 10000 nM |
| COc1cc(NC(=S)NC(=O)c2ccc(C(C)(C)C)cc2)ccc1NC(C)=O [Compound 20, N-[(4-acetamido-3-methoxy-phenyl)-carbamothioyl]-4-tert-butyl-benzamide] | < 1000 | < 1000 | 1000 to 10000 | 1000 to 10000 | < 1000 | < 1000 | – | – | – | – |
| CNc1ccc(NC(=S)NC(=O)c2ccc(C(C)(C)C)cc2)cc1 [Compound 21, 4-tert-butyl-N-[[4-(methylamino)phenyl]-carbamothioyl]benzamide hydrochloride] | < 1000 | < 1000 | 1000 to 10000 | 1000 to 10000 | < 1000 | < 1000 | – | – | – | – |
| COc1cc(NC(=S)NC(=O)c2ccc(C(C)(C)C)cc2)ccc1NC(=O)c1ccccc1Cl [Compound 39] | < 1000 | – | < 1000 | < 1000 | – | – | < 1000 | < 1000 | < 1000 | Andes: reduces yield (Andes virus): yield >100-fold); EC50 (Andes virus; Orthohantavirus andesense, read-out: Misc Virus Activity: Andes): < 1000 nM; EC50 [1]: < 1000 nM; Lymphocytic Choriomeningitis: reduces yield [2]: (reduces yield >10^4-fold); EC50 [2]: < 1000 nM; EC50 [3, 10]: < 1000 nM; EC50 [4]: < 1000 nM; EC50 (Sindbis virus): < 1000 nM; EC50 (HIV-1): < 1000 nM; EC50 (Ebola virus; [13]): < 1000 nM |
| CC(C)(C)c1ccc(C(=O)NC(=S)Nc2ccccc2Cl)cc1 [Compound 40, 4-tert-butyl-N-[(2-chlorophenyl)carbamothioyl]-benzamide] | < 1000 | – | < 1000 | < 1000 | – | – | < 1000 | < 1000 | < 1000 | Lymphocytic Choriomeningitis: reduces yield [2]: (reduces yield >10^4-fold); EC50 [2]: < 1000 nM; EC50 [3, 10]: < 1000 nM; EC50 (Ebola virus; [13]): 10000 to 25000 nM |
| CC(C)(C)c1ccc(C(=O)NC(=S)Nc2ccc(Nc3ccccc3)cc2)cc1 [Compound 45, N-[(4-anilinophenyl)-carbamothioyl]-4-tert-butyl-benzamide] | < 1000 | – | 1000 to 10000 | < 1000 | – | – | < 1000 | < 1000 | < 1000 | – |
| Cc1ccc(NC(=S)NC(=O)c2ccc(C(C)(C)C)cc2)c(C)c1 [Compound 48, 4-tert-butyl-N-[(2,4-dimethylphenyl)-carbamothioyl]benzamide] | < 1000 | – | < 1000 | 1000 to 10000 | – | – | < 1000 | < 1000 | 1000 to 10000 | – |
| CN(C)c1ccc(NC(=S)NC(=O)c2ccc(C(C)(C)C)cc2)cc1 [Compound 49, 4-tert-butyl-N-[(4-dimethylaminophenyl)-carbamothioyl]benzamide] | 1000 to 10000 | – | < 1000 | 1000 to 10000 | – | – | < 1000 | < 1000 | < 1000 | – |
| NC(=O)c1ncn([C@@H]2O[C@H](CO)[C@@H](O)[C@H]2O)n1 [ribavirin, reference compound] | – | – | – | – | – | – | – | – | – | EC50 ([3]; read-out: EC50 value for RVFV): 300000 nM; EC50 (La Crosse virus (LACV); La Crosse virus, Vero, read-out: EC50 value for LACV): 750000 nM |
